Data set [1] can be described thus: Pharmacokinetic study, nutlin-3 single or co-administered with (R)-HZ00. The class given is in vivo, NOD-SCID mice. The conditions noted are these: mice; nutlin-3 100 mg kg-1 oral + (R)-HZ00 150 mg kg-1 i.p. The method, then: Waters Acquity UPLC (Waters Corp.) was used for all LC/MS and LC/MS/MS experiments. For chromatographic separation a general gradient was used (5 % mobile phase B to 90 % over 2 min total run) on a C18 BEH 1.7 µm column 2 × 50 mm (Waters Corp.). Mobile phase A consisted of 5 % acetonitrile 0.1 % formic acid and mobile phase B 100 % acetonitrile 0.1 % formic acid. The flow rate was 0.5 mL min-1 and 3 µL of the sample was injected. A standard curve between 3−1000 nM was prepared for each compound.
Cocrystallization, data collection and structure determination of DHODH with inhibitor HZ05 Co-crystals were prepared similar to previously described6. In short 18 mg mL-1 DHODH (dissolved in 10 mM N,N-dimethylundecylamine N-oxide (C11DAO) (Fluka), 400 mM NaCl, 1 mM EDTA, 100 mM HEPES (pH 7), and 30 % glycerol) was mixed in a 1:1 ratio with 2 M NH4SO4, 0.1 M Na Acetate pH 4.8, 30 mM N,N-dimethyldodecylamine N-oxide (DDAO), 15 mM C11DAO, 2 mM L-dihydroorotic acid, 1 mM HZ05 and 6 % DMSO. The crystals did grow from hanging drops at 20°C in a VDX plate; 2.5 µL protein solution mixed with 2.5 µL reservoir (30 % (v/v) glycerol, 0.1 M Na acetate pH 4.8 and 2 M NH4SO4). A crystal was flashfrozen in liquid nitrogen and data was collected to 1.7 Å at Diamond Light Source beamline i02. The structure was determined using Molecular Replacement and refined in Refmac57. […]

Another data set has as its system ARN8 xenograft. The experiment in a line: ARN8 subcutaneous xenograft. The class given is in vivo. The conditions noted are these: for toxicity in xenograft study: mice, (R)-HZ00 150 mg kg−1 i.p. q.d., nutlin-3 100 mg kg−1 p.o. q.d. On the procedure: All animal xenograft experiments were approved by the Norwegian Animal Research Authority and conducted according to The European Convention for the Protection of Vertebrates Used for Scientific Purposes. […] The health status and weight of the mice were monitored daily and they were randomized in a non-blinded manner into 4 groups when tumor volumes reached 30–40 mm^3. […] Tumor volumes were measured every second day by a digital caliper using the following ellipsoid formula: Volume = π (length × width × height)/6.
To determine the efficacy of (R)-HZ05 in combination with nutlin-3a, 4 groups of NSG mice (n = 8 per group) were subcutaneously injected in the flank region with a single 100 μL injection of 2 × 10^6 ARN8 cells in a solution of PBS:Matrigel (volume ratio 3:1). Treatment was initiated when tumors reached ~50 mm^3. The maximum tolerated dose for this combination of drugs was previously determined for the strain we used. The endpoint of the experiment was determined by the tumor size ([…]) weight loss, and general condition of the mice according to The Norwegian Animal Research Authority.

In the next data set the test system is ARN8 cells. Kind of data set: Giemsa staining of ARN8 cultures (uridine, orotic acid, dihydroorotic acid supplementation). The class given is cell-based, human. The conditions noted are these: 72 h, 2.5 or 5 μM uridine, serum replacement medium. On the procedure:
Additionally, ARN8 cells were treated for 16 h and p53-dependent transcription was measured by CPRG assay. Values correspond to the average of three technical repeats ± SD. c Simplified description of the pyrimidine nucleotide de novo (blue) and salvage (black) pathways. d ARN8 cells were seeded in FBS supplemented DMEM with a change to serum replacement medium 24 h post seeding. […] Values correspond to the average of three technical repeats ± SD. f ARN8 cells were seeded in FBS supplemented DMEM with a change to serum replacement medium 24 h post seeding.

For the next data set, the target named is CDK7/CycH/MAT1 (Homo sapiens, UniProt P50613). The experiment in a line: biochemical. The arrangement: radiometric 33PanQinase protein kinase activity assay, CDK/cyclin panel, per cent remaining activity. The conditions noted are these: read-out: (R)-HZ00 10 µM Average (% remaining activity). The source says:
(§1) Supplementary Table 1. In vitro inhibition (% remaining activity) of cyclin-dependent
(§2) ProQinase GmbH (Freiburg, Germany) using a radiometric protein kinase assay
(§3) (33PanQinase® Activity Assay).
(§4) (1 picture or pasted object on this page, not shown here) 32 Supplementary Table 1. In vitro inhibition (% remaining activity) of cyclin-dependent kinases (CDKs).

The target of a further data set is T1, PCTAIRE1/CycY (Homo sapiens, UniProt Q00536).
T1 construct: gene CDK16
Kind of data set: biochemical. The arrangement: radiometric 33PanQinase protein kinase activity assay, CDK/cyclin panel, per cent remaining activity. The conditions noted are these: read-out: (R)-HZ00 10 µM Average (% remaining activity).
From the text: as §1, §2, §3, §4

A further data set addresses CDK1/CycB1 (Homo sapiens, UniProt P06493). Kind of data set: biochemical. On the set-up: radiometric 33PanQinase protein kinase activity assay, CDK/cyclin panel, per cent remaining activity. The conditions noted are these: read-out: (R)-HZ00 10 µM Average (% remaining activity).
From the text: as §1, §2, §3, §4

The target of a further data set is CDK4/CycD3 (Homo sapiens, UniProt P11802). Kind of data set: biochemical. On the set-up: radiometric 33PanQinase protein kinase activity assay, CDK/cyclin panel, per cent remaining activity. The conditions noted are these: read-out: (R)-HZ00 10 µM Average (% remaining activity).
From the text: as §1, §2, §3, §4

The next data set deals with T2, CDK5/p25NCK (Homo sapiens, UniProt Q00535).
T2 construct: p25
T2 sequence (Q00535 whole entry): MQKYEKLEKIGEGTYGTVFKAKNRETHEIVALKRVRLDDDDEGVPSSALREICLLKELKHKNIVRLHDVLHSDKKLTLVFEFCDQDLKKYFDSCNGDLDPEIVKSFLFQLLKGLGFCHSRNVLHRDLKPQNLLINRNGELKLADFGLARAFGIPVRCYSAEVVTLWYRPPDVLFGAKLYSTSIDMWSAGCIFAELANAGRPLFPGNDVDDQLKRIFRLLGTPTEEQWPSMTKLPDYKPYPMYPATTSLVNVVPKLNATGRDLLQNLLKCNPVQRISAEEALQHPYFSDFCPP
T2 sequence (Q15078 whole entry partner): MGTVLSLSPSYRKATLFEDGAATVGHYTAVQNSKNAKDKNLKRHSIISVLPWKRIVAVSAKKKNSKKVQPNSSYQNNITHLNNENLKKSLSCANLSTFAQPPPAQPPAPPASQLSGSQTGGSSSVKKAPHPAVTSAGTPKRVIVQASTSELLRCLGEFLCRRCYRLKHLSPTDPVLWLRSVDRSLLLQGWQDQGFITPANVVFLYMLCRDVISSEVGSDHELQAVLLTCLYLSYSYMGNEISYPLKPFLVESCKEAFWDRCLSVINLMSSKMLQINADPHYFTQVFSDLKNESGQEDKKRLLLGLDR
Kind of data set: biochemical. The arrangement: radiometric 33PanQinase protein kinase activity assay, CDK/cyclin panel, per cent remaining activity. The conditions noted are these: read-out: (R)-HZ00 10 µM Average (% remaining activity).
From the text: as §1, §2, §3, §4

For the next data set, the target named is CDK9/CycT1 (Homo sapiens, UniProt P50750). Kind of data set: biochemical. On the set-up: radiometric 33PanQinase protein kinase activity assay, CDK/cyclin panel, per cent remaining activity. The note with it: read-out: (R)-HZ00 10 µM Average (% remaining activity).
Sequence of CDK9/CycT1 (P50750 whole entry): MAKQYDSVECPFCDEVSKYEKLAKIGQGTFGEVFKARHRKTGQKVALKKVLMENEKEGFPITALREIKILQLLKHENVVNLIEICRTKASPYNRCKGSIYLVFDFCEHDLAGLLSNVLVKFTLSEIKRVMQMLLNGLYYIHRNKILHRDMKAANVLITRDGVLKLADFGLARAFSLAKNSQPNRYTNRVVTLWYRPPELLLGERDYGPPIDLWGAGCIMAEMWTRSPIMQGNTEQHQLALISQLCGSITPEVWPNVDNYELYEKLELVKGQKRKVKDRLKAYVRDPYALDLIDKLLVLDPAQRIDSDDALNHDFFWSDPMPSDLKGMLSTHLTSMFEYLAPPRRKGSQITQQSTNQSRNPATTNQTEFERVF
Sequence of CDK9/CycT1 (O60563 whole entry partner): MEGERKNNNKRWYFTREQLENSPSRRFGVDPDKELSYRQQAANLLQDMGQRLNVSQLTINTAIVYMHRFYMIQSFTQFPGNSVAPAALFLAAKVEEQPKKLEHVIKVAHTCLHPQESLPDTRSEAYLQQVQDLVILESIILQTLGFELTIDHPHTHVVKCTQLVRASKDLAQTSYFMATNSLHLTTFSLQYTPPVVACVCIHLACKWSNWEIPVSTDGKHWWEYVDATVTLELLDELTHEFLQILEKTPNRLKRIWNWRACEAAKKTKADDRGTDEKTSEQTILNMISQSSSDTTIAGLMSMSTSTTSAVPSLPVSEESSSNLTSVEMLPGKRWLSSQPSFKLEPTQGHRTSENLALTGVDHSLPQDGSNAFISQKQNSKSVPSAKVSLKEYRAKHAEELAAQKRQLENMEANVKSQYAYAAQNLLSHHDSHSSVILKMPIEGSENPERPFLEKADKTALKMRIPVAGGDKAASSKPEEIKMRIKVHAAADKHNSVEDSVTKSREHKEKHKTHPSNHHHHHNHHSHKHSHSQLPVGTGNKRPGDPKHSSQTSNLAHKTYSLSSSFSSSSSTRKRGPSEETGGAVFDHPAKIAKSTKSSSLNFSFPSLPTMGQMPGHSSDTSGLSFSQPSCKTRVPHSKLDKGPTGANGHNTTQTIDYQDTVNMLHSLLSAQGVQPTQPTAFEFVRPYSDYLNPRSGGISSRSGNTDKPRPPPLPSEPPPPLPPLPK
From the text: as §1, §2, §3, §4

For another data set, the target named is T3, CDK5/p35NCK (Homo sapiens, UniProt Q00535).
T3 construct: p35
T3 sequence (Q00535 whole entry): as the sequence (Q00535 whole entry) above
T3 sequence (Q15078 whole entry partner): as the sequence (Q15078 whole entry partner) above
The experiment in a line: biochemical. The arrangement: radiometric 33PanQinase protein kinase activity assay, CDK/cyclin panel, per cent remaining activity. The conditions noted are these: read-out: (R)-HZ00 10 µM Average (% remaining activity).
From the text: as §1, §2, §3, §4

Another data set concerns the target CDK1/CycA2 (Homo sapiens, UniProt P06493). The experiment in a line: biochemical. The conditions noted are these: read-out: (R)-HZ00 10 µM Average (% remaining activity). The arrangement: radiometric 33PanQinase protein kinase activity assay, CDK/cyclin panel, per cent remaining activity.
From the text: as §1, §2, §3, §4

The target of a further data set is CDK2/CycE1 (Homo sapiens, UniProt P24941). The experiment in a line: biochemical. The arrangement: radiometric 33PanQinase protein kinase activity assay, CDK/cyclin panel, per cent remaining activity. The conditions noted are these: read-out: (R)-HZ00 10 µM Average (% remaining activity).
From the text: as §1, §2, §3, §4

A further data set addresses CDK6/CycD1 (Homo sapiens, UniProt Q00534). Kind of data set: biochemical. On the set-up: radiometric 33PanQinase protein kinase activity assay, CDK/cyclin panel, per cent remaining activity. The note with it: read-out: (R)-HZ00 10 µM Average (% remaining activity).
From the text: as §1, §2, §3, §4

The next data set concerns the target CDK1/CycE1 (Homo sapiens, UniProt P06493). Kind of data set: biochemical. The conditions noted are these: read-out: (R)-HZ00 10 µM Average (% remaining activity). The arrangement: radiometric 33PanQinase protein kinase activity assay, CDK/cyclin panel, per cent remaining activity.
From the text: as §1, §2, §3, §4

In the next data set the target is CDK8/CycC (Homo sapiens, UniProt P49336). The experiment in a line: biochemical. The arrangement: radiometric 33PanQinase protein kinase activity assay, CDK/cyclin panel, per cent remaining activity. The conditions noted are these: read-out: (R)-HZ00 10 µM Average (% remaining activity).
Sequence of CDK8/CycC (P49336 whole entry): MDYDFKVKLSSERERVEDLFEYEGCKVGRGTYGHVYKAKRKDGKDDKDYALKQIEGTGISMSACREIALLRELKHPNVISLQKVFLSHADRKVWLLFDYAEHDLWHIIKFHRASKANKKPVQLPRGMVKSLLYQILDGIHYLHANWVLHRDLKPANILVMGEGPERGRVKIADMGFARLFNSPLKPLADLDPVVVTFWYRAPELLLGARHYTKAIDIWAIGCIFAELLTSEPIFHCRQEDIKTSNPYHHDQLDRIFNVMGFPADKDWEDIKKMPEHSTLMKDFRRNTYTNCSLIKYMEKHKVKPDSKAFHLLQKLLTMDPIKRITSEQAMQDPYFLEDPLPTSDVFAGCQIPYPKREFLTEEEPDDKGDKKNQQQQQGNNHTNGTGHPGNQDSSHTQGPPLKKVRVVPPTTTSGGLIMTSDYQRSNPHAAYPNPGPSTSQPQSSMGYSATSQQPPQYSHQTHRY
Sequence of CDK8/CycC (P24863 whole entry partner): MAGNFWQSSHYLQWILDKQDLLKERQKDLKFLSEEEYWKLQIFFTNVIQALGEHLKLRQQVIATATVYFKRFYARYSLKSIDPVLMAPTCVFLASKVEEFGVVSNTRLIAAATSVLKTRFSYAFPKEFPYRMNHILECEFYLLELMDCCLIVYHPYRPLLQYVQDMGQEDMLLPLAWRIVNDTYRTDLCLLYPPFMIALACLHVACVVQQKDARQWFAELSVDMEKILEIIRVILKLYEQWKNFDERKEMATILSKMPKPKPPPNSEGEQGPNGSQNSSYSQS
From the text: as §1, §2, §3, §4

Another data set concerns the target CDK4/CycD1 (Homo sapiens, UniProt P11802). Kind of data set: biochemical. The arrangement: radiometric 33PanQinase protein kinase activity assay, CDK/cyclin panel, per cent remaining activity. The note with it: read-out: (R)-HZ00 10 µM Average (% remaining activity).
From the text: as §1, §2, §3, §4

In a further data set the target is CDK2/CycA2 (Homo sapiens, UniProt P24941). Kind of data set: biochemical. On the set-up: radiometric 33PanQinase protein kinase activity assay, CDK/cyclin panel, per cent remaining activity. The note with it: read-out: (R)-HZ00 10 µM Average (% remaining activity).
From the text: as §1, §2, §3, §4

The target in another data set is CDK9/CycK (Homo sapiens, UniProt P50750). The experiment in a line: biochemical. The arrangement: radiometric 33PanQinase protein kinase activity assay, CDK/cyclin panel, per cent remaining activity. The note with it: read-out: (R)-HZ00 10 µM Average (% remaining activity).
Sequence of CDK9/CycK (P50750 whole entry): as the sequence (P50750 whole entry) above
Sequence of CDK9/CycK (O75909 whole entry partner): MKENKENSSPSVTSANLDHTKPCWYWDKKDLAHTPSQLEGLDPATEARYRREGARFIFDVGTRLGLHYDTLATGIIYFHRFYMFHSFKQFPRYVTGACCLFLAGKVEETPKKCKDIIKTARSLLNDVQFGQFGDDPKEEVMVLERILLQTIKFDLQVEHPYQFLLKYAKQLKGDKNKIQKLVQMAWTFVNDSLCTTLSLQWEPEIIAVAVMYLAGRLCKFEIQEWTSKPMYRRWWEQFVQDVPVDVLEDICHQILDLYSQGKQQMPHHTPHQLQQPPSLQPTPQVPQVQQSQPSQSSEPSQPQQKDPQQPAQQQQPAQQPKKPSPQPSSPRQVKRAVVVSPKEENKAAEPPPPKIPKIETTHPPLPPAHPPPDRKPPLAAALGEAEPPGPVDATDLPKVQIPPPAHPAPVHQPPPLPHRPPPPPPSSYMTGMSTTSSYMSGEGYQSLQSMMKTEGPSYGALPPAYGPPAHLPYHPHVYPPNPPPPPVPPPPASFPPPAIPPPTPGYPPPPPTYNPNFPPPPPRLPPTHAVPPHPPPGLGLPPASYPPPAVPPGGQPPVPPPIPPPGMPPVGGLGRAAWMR
From the text: as §1, §2, §3, §4

The next data set addresses CDK3/CycE1 (Homo sapiens, UniProt Q00526). Kind of data set: biochemical. On the set-up: radiometric 33PanQinase protein kinase activity assay, CDK/cyclin panel, per cent remaining activity. The conditions noted are these: read-out: (R)-HZ00 10 µM Average (% remaining activity).
From the text: as §1, §2, §3, §4

In data set [2] the test system is p53-dependent transcription in ARN8 human melanoma cells. The experiment in a line: p53-dependent transcription reporter (CPRG assay) in ARN8 cells. The conditions noted are these: ARN8, 16 h. The class given is cell-based. The method, then: A 20,000 compound library was purchased from ChemBridge consisting of 10,000 from the DIVERSet and 10,000 from the CombiSet libraries. […] A total of 30,000 additional compounds from the ChemBridge DIVERSet that were previously screened in a T22 cell background[12] were re-screened in ARN8 cells at 5 µM. The ChemBridge codes for these compounds can be made available upon request. All chemical synthesis is detailed in Supplementary Information with NMR spectra and reaction schemes detailed in Supplementary Figs. 13–19.

Sequence of CDK6/CycD1 (Q00534 whole entry): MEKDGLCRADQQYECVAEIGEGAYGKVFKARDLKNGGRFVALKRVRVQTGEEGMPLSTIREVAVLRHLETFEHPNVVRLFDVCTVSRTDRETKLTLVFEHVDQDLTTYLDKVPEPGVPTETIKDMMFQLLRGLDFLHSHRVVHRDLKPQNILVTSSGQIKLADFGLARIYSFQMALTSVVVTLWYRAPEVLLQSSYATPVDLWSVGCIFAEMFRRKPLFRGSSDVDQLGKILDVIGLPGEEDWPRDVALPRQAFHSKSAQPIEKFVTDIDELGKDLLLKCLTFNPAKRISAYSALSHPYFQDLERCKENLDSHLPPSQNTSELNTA
Sequence of CDK6/CycD1 (P24385 whole entry partner): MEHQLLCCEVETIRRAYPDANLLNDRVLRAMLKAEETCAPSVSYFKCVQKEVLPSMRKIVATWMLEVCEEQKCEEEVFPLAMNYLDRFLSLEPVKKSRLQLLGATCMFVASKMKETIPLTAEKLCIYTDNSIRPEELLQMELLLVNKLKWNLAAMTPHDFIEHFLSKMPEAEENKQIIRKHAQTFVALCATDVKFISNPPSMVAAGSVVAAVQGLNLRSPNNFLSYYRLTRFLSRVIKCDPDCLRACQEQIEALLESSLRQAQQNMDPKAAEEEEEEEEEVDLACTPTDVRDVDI
Sequence of CDK3/CycE1 (Q00526 whole entry): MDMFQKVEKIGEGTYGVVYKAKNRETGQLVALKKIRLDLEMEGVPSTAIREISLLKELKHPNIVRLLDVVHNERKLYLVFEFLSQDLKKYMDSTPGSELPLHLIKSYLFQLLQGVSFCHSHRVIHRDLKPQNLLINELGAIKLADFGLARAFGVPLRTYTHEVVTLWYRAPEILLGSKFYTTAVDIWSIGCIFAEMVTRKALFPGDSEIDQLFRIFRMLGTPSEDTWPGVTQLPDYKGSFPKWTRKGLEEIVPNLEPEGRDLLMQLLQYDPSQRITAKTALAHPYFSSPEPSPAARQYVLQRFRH
Sequence of CDK3/CycE1 (P24864 whole entry partner): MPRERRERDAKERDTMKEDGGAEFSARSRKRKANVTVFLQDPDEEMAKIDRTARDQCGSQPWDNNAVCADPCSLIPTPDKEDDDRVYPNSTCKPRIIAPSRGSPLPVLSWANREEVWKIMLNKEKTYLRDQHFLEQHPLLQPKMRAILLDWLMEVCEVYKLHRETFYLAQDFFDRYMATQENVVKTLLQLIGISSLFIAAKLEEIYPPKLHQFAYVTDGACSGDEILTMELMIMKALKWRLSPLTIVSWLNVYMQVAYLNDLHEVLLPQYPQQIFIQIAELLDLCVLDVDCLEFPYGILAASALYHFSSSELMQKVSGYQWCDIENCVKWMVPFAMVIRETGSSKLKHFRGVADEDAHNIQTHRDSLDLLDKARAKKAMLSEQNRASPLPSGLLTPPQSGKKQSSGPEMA

Regarding `COc1ccc(C2=N[C@@H](c3ccc(Cl)cc3)[C@@H](c3ccc(Cl)cc3)N2C(=O)N2CCNC(=O)C2)c(OC(C)C)c1` [nutlin-3, reference compound], the “half-life on co-administration with (R)-HZ00” value in data set [1] is listed as “not prolonged”. Further, the “toxicity in xenograft study” value with ARN8 xenograft is “treatments had to be discontinued after 9 days due to the toxicity”.
For `O=C(N[C@@H]1CCCc2c1cnn2-c1ccccc1F)c1ccccn1` [(R)-HZ00], the “xenograft tumor growth, combination with nutlin-3” value with ARN8 xenograft ((R)-HZ00 150 mg kg−1 i.p. q.d. + nutlin-3 100 mg kg−1 p.o. q.d.) is listed as “significant ARN8 xenograft tumor growth inhibition”. The “toxicity in xenograft study” value with ARN8 xenograft was “not toxic”. Moreover, the “tumor cell growth at physiological uridine levels” value with ARN8 cells is “markedly reduce tumor cell growth”. The remaining activity at 10 µM at CDK7/CycH/MAT1 was found to be 105%; at PCTAIRE1/CycY, 95.4%; on CDK1/CycB1, 100%; at CDK4/CycD3 it was 98.3%; at CDK5/p25NCK, 113%; at CDK9/CycT1, 107%. Further, the remaining activity at 10 µM was determined as 101% on CDK5/p35NCK; 90.9% at CDK1/CycA2; 96.8% at CDK2/CycE1; 97.1% at CDK6/CycD1; 103% on CDK1/CycE1; 92.4% on CDK8/CycC. In addition, the remaining activity at 10 µM on CDK4/CycD1 is 104%; at CDK2/CycA2, 101%; at CDK9/CycK, 95.9%; at CDK3/CycE1, 90.8%. Moreover, in data set [2], the “p53 reporter activity, (R)- versus (S)-enantiomer” value is “significantly higher p53 reporter activity”.

The term remaining activity denotes the signal under treatment as a percentage of the control signal.

The record behind these values is publication PMC5856786, “A DHODH inhibitor increases p53 synthesis and enhances tumor cell killing by p53 degradation blockage” (Nature Communications, 2018).
